Patent EP1010435A1, “NANOCAPSULE PREPARATIONS FOR TREATING INTRAARTICULAR DISEASES” (Maruho K.K., priority 1997, dated 1999)

Test system: rabbit models in which adjuvant arthritis was induced with ovalbumin (FCA)
Experiment: Rabbit adjuvant arthritis model, intra-articular administration simultaneously with boosting
Format: in vivo, rabbits
Method: Produced were rabbit models in which adjuvant arthritis was induced with ovalbumin (FCA) according to the method of E.R.Pettipher et al. (Br.J.Exp.Path., 69, 113-122, (1988)). Three weeks after sensitization, the models were boosted again with ovalbumin at knees. Simultaneously with boosting, the sample of the present invention was administered in articular cavities.
An aqueous solution of betamethasone sodium phosphate so prepared that the amount of the medicament (BSP) was the same, 3mg, and physiological saline alone were administered in articular cavities as a control and as a blank test, respectively, simultaneously with boosting.
The outside diameter of the knees of rabbits were measured with a caliper 1 day, 3 days, 7 days, 14 days, 21 days, 28 days, 35 days and 42 days after administration. Skin temperature at the knees was measured with a contact-type surface thermometer.
The outside diameter of the knees and temperature measured with time are shown as values obtained by subtracting reference values from the measured values. The reference values are those before the boosting at the knees.
Further, blood was collected from rabbits 2 weeks, 4 weeks and 6 weeks after boosting, and the production of antibodies for ovalbumin was mesured by the ELISA method (according to the same reference by E.R.Pettipher). In addition, 6 weeks after boosting, the knee joints of rabbits are opened, and the inside of the articular cavities and surrounding tissue were morphologically observed.

SMILES: C[C@H]1C[C@H]2[C@@H]3CCC4=CC(=O)C=C[C@]4(C)[C@@]3(F)[C@@H](O)C[C@]2(C)[C@@]1(O)C(=O)COP(=O)(O)O [betamethasone sodium phosphate]
- temperature of knees (surface skin temperature, increase) (1 to 42 days after administration, 3 mg BSP intra-articular): fever due to inflammation was suppressed
- swell of knees (outside diameter, increase over value before boosting), later course (after day 1 up to 5 weeks and later, 3 mg BSP intra-articular): almost the same swell as in the case of physiological saline
- swell of knees (outside diameter, increase over value before boosting) (one day after intra-articular administration, 3 mg BSP): suppressed
